Measurements: patent US20080261902A1, “Pharmaceutical composition containing polydatin and its application” (Shenzhen Neptunus Pharmaceutical Co., Ltd., priority 2005, published 2008)
Values after ≈ are worked out from the molar mass of the structure shown.

Tests used:
[1] = Solubility of polydatin in alcohol-propanediol-water mixed solvent (Embodiment 15); format: physicochemical; conditions: for solubility at 8 h: aqueous with cosolvent or surfactant or cyclodextrin, thermodynamic from solid
Excerpt: 1. Materials: Anhydrous alcohol, analytically pure, Guangzhou No. 2 chemical reagent factory; 1,2-propanediol, analytically pure, Guangzhou No. 2 chemical reagent factory; purified water, […] industry city. 2. Method: Precisely measuring alcohol water solution of 45%, 60%, 75%(v/v), precisely adding propanediol at volume proportions of 10:1, 10:2, 10:2.5, 10:3, 10:4, preparing mixed solvents. The mixed solvents obtained contain propanediol of about 10%˜30%(v/v), alcohol of about 32%˜68%(v/v). Precisely measuring 20 ml of each above mixed solvent, adding polydatin of proper amount respectively, treating with ultrasonic for 20 min under 40° C., supersaturating the solution, placing for 8 h under room temperature, filtering with 0.45 μm microporous membrane, wherein the filtrates are saturated solutions of polydatin in different mixed solutions. Adopting HPLC method to determine content of polydatin in the filtrates and calculate solubility of polydatin referring to document 20.

[2] = system: dogs in hemorrhagic shock; test: Treatment effect of polydatin drug compositions to dogs in hemorrhagic shock (Embodiment 20); format: in vivo, Beagle dogs; conditions: for survival rate: 168 hours
[3] = system: SD rats, shock related to skin burn; test: Treatment action for shock related to skin burn (Embodiment A8); format: in vivo; conditions: 2.4 mg/kg venous injection half hour after burning; control 7.0±2.6 hours
[4] = system: shock caused by bleeding in rats; conditions: versus equal dose of comparators; cited from earlier work

SMILES: OCC1OC(Oc2cc(O)cc(/C=C/c3ccc(O)cc3)c2)C(O)C(O)C1O [polydatin, 3,4′,5-trihydroxy-trans stilbene-3-β-D-glucoside]
- solubility at 8 h ([1]; alcohol-propanediol-water mixed solvent, 45% alcohol water/propanediol 10/1): 27.8 mg/mL (≈ 71.2 mM)
- solubility at 8 h ([1]; alcohol-propanediol-water mixed solvent, 45% alcohol water/propanediol 10/2): 34.3 mg/mL (≈ 87.9 mM)
- solubility at 8 h ([1]; alcohol-propanediol-water mixed solvent, 45% alcohol water/propanediol 10/2.5): 39.5 mg/mL (≈ 101 mM)
- solubility at 8 h ([1]; alcohol-propanediol-water mixed solvent, 45% alcohol water/propanediol 10/3): 42.4 mg/mL (≈ 109 mM)
- solubility at 8 h ([1]; alcohol-propanediol-water mixed solvent, 45% alcohol water/propanediol 10/4): 52.2 mg/mL (≈ 134 mM)
- solubility at 8 h ([1]; alcohol-propanediol-water mixed solvent, 60% alcohol water/propanediol 10/1): 55.7 mg/mL (≈ 143 mM)
- solubility at 8 h ([1]; alcohol-propanediol-water mixed solvent, 60% alcohol water/propanediol 10/2): 66.4 mg/mL (≈ 170 mM)
- solubility at 8 h ([1]; alcohol-propanediol-water mixed solvent, 60% alcohol water/propanediol 10/2.5): ~75 mg/mL (≈ 192 mM)
- solubility at 8 h ([1]; alcohol-propanediol-water mixed solvent, 60% alcohol water/propanediol 10/3): 93.3 mg/mL (≈ 239 mM)
- solubility at 8 h ([1]; alcohol-propanediol-water mixed solvent, 60% alcohol water/propanediol 10/4): 95.2 mg/mL (≈ 244 mM)
- solubility at 8 h ([1]; alcohol-propanediol-water mixed solvent, 75% alcohol water/propanediol 10/1): 81.5 mg/mL (≈ 209 mM)
- solubility at 8 h ([1]; alcohol-propanediol-water mixed solvent, 75% alcohol water/propanediol 10/2): 89.8 mg/mL (≈ 230 mM)
- solubility at 8 h ([1]; alcohol-propanediol-water mixed solvent, 75% alcohol water/propanediol 10/2.5): 92.9 mg/mL (≈ 238 mM)
- solubility at 8 h ([1]; alcohol-propanediol-water mixed solvent, 75% alcohol water/propanediol 10/3): 98.4 mg/mL (≈ 252 mM)
- solubility at 8 h ([1]; alcohol-propanediol-water mixed solvent, 75% alcohol water/propanediol 10/4): 116 mg/mL (≈ 297 mM)
- solubility at 8 h ([1]; alcohol-water solution without propanediol, 45% alcohol water, no propanediol (10/—)): 20.2 mg/mL (≈ 51.7 mM)
- solubility at 8 h ([1]; alcohol-water solution without propanediol, 60% alcohol water, no propanediol (10/—)): 42.5 mg/mL (≈ 109 mM)
- solubility at 8 h ([1]; alcohol-water solution without propanediol, 75% alcohol water, no propanediol (10/—)): 75.1 mg/mL (≈ 192 mM)
- concentration of polydatin ([1]; mixed solvent of 60% alcohol-water and propanediol 10:2.0~10:4.0): higher than 60 mg/ml
- survival rate ([2]; 1.8 mg/kg): 3 number/5
- survival rate ([2]; 3.0 mg/kg): 4 number/5
- survival rate ([2]; 5.0 mg/kg): 4 number/5
- average arterial pressure (FIG. 1) ([2]; high dose 5.0 mg/kg, compared with blank control and dopamine groups): can maintain blood pressure of dogs after acute hemorrhage
- average survival period [3]: > 13.3 h
- treatment effect to shock caused by bleeding [4]: better than that of using an equal dose of Dopamine and Anisodamine hydrobromide
